Data on three molecules can be found in patent US12325862B2, “Compositions and methods for transgenic crops resistant to thaxtomins” (University of Florida Research Foundation, Inc., priority 2019, dated 2025).

One data set relates to radish seedlings. Put plainly: Radish seedling assay. The format is in vivo. As to conditions: for growth of radish seedlings on agar plate: after seven days, compared with negative control DMSO. The protocol: Serial concentrations of thaxtomins in DMSO were added into 20 mL of 1.5% warm agar solution with gentle agitation to the final concentrations range from 0 to 2 μM. DMSO was included as a negative control. The solution was then poured into the plate for solidification at room temperature for 30 min. Radish seeds (W. Atlee Burpee & Co., Warminster Township, Pennsylvania) were surface disinfested, pregerminated, and selected when the radicle was […] and just emerged from the seed coat. Six radish seedlings were equally located on the surface of each plate with the root ends all pointed in the same direction. Agar plates were covered and sealed with Parafilm®. The seedlings in the agar plates grew at room temperature under fluorescent lighting (12 h per day for 7 days), and then the seedling with average size of all seedlings in the same plate was selected for comparison.
A radish seedling assay was carried out to investigate the herbicidal activity of serial concentrations of 4-amino thaxtomin A (compound 5). The assay also included DMSO as negative control and thaxtomin A (1) as positive control. […] The diminished herbicidal activity is caused by the transformation of the nitro group of thaxtomin A (1) into the amine group.

Data set [1] can be described thus: NfsB enzymatic reaction, conditions optimized with thaxtomin A as substrate. The format is biochemical. The protocol: Enzymatic reaction conditions were optimized with thaxtomin A as substrate. […] When coupled with a glucose dehydrogenase (GDH)- or phosphite dehydrogenase (PTDH)-based NADPH regeneration system, the enzyme at 10 μM achieved greater than 90% conversion of thaxtomin A (2 mM) at 37° C. in 8 hours. […] In addition, a crude extract of engineered thaxtomin producing strain Streptomyces albus-thx2 was prepared; the extract contained about 69% thaxtomin A based on HPLC analysis.

As for `CN1C(=O)[C@](O)(Cc2cccc(O)c2)N(C)C(=O)[C@@H]1Cc1c[nH]c2cccc(N)c12` [compound 5, 4-amino thaxtomin A], the “growth of radish seedlings on agar plate” value in the data set on radish seedlings (0.05 μM) and with radish seedlings (2.0 μM) was “the same as the negative control DMSO” in each case. Further, the “herbicidal activity to radish seedlings” value in the data set with radish seedlings (overall conclusion, 0.05 μM and 2.0 μM) is reported as “minimal to no herbicidal activity”.

In the case of `CN1C(=O)[C@](O)(Cc2cccc(O)c2)N(C)C(=O)[C@@H]1Cc1c[nH]c2cccc([N+](=O)[O-])c12` [thaxtomin A, reference compound], the “growth of radish seedlings on agar plate” value in the data set on radish seedlings (2.0 μM) is “significantly inhibited”.

B1: NfsB: nitroreductase from Haemophilus influenzae (SEQ ID NO: 4), recombinant with C-terminal His6 tag (protein, listed as Haemophilus influenzae)
chain: MTQLTREQVLELFHQRSSTRYYDPTKKISDEDFECILECGRLSPSSVGSEPWKFLVIQNKTLREKMKPFSWGMINQLDNCSHLVVILAKKNARYDSPFFVDVMARKGLNAEQQQAALTKYKALQEEDMKLLENDRTLFDWCSKQTYIALANMLTGASALGIDSCPIEGFHYDKMNECLAEEGLFDPQEYAVSVAATFGYRSRDIAKKSRKGLDEVVKWVG
modifications: C-terminal His6 tag
For the molecule B1, the “conversion of thaxtomin A (1) in crude extract into compound 5” value in data set [1] (crude extract of Streptomyces albus-thx2, about 69% thaxtomin A) was “completely converted”. Besides, the “conversion of thaxtomin A” value in data set [1] (enzyme 10 μM, thaxtomin A 2 mM, 37° C., 8 hours, GDH- or PTDH-based NADPH regeneration system) is “greater than 90%”. In addition, the “temperature of highest enzyme activity” value in data set [1] (thaxtomin A as substrate) amounted to 37 °C.
